According to patent US11219632B2, “Skin pigmentation inhibitor” (Oriental Yeast Co., Ltd., priority 2017, dated 2022):

Legend:
Assay type in all cases: in vivo, brown guinea pig
[1] = test system: pigmentation induced by ultraviolet; test: Ultraviolet-induced skin pigmentation in brown guinea pigs, oral β-NMN (Example 1); conditions: for ΔL value at ultraviolet irradiation site: oral 500 mg/kg body weight once a day
From the text: (§1) Brown guinea pigs (Kw1: line A-1, supplied from Kiwa Laboratory Animals Co., Ltd.) used for the subsequent experiment were bred under SPF environment throughout the entire experimental period. As in a case of humans, it is known that pigmentation of the brown guinea pigs of Kw1: line A-1 is caused by ultraviolet irradiation.
(§2) First, an unanesthetized brown guinea pig was fixed on a fixed plate in an abdominal position, and the back skin was sheared with an electric hair clipper and shaved with an electric shaver. Among the shaved area of the back skin, a region obtained by cutting out a region corresponding to the irradiation site by attaching a tape for bookbinding to an adhesive fabric stretchable bandage (ELASTOPORE No. 50, Nichiban Co., Ltd.) was attached on a site other than the ultraviolet irradiation site, and thereby the region other than the radiation site was light-shielded. Further, the eyes of the guinea pig were also light-shielded from ultraviolet by attaching lint cloth with the adhesive fabric stretchable bandage. Thereafter, ultraviolet (UVB) irradiation was performed from a distance of 40 cm using five SE lamps (wavelength of 250 to 350 nm, FL20S E, Toshiba Corporation) attached to an ultraviolet irradiation apparatus (Y-798-II, Orion Electric Co., Ltd.).
(§3) Regarding oral administration, a solution in which β-NMN (Oriental Yeast Co., Ltd.) was dissolved in injection water (Otsuka Pharmaceutical Factory, Inc.) was orally administered forcedly using a disposable syringe made of polypropylene (Terumo Corporation) attached with a catheter (a nutrition catheter manufactured by JMS Co., Ltd.). […] A dosage was calculated from a body weight value on an administration day or a day close to the administration day, and the dosage was 5 mL/kg.
Effects of […] on pigmentation induced by ultraviolet were examined using brown guinea pigs.
First, six brown guinea pigs were divided into a group administered β-NMN (NMN group) and a group administered injection water (control group). A day performed this group dividing was considered day 0 of administration, and from the next day, the β-NMN solution or injection water was orally administered to the guinea pigs of each group once a day for 42 days. The β-NMN solution was administered at a dosage of 500 mg/kg body weight. […]
(Measurement of pigmentation) L values (brightness) of the skin of the ultraviolet irradiation site of each guinea pig were measured by using Chroma Meter (CR-300, Konica Minolta, Inc.) on the first irradiation day (day 0), and on days 14, 21, and 28. […] On days 0, 14 and 21, L values were measured before the ultraviolet irradiation, and on day 28, L values were measured in the morning. […]

[2] = test system: pigmentation induced by ultraviolet; test: Ultraviolet-induced skin pigmentation in brown guinea pigs, oral and transdermal β-NMN (Example 2); conditions: for ΔL value at ultraviolet irradiation site: 28 days from first irradiation
From the text: as §1, §2, §3
Effects of β-NMN on pigmentation induced by ultraviolet were examined using brown guinea pigs.
Ethanol (lot number: DSM5187, Wako Chemical Co., Ltd.), 1,3-butanediol (lot number: TWQ 6672, Wako Pure Chemical Industries, Ltd.), and injection water (lot number: K5F71, Otsuka Pharmaceutical Factory, Inc.) were mixed at a ratio of 1:1:8 (a volume ratio), and used as a solvent. A solution dissolved β-NMN in this solvent at a concentration of 0.5% by mass was used as a β-NMN-containing external preparation.
First, six brown guinea pigs were divided into a group orally administered β-NMN and a group not administered β-NMN. […]

[3] = Body weight of brown guinea pigs during oral β-NMN administration (Example 1); conditions: for Body weight: oral 500 mg/kg
Procedure: First, six brown guinea pigs were divided into a group administered β-NMN (NMN group) and a group administered injection water (control group). A day performed this group dividing was considered day 0 of administration, and from the next day, the β-NMN solution or injection water was orally administered to the guinea pigs of each group once a day for 42 days. The β-NMN solution was administered at a dosage of 500 mg/kg body weight.
A body weight of each guinea pig was measured with an electronic balance in the morning once a week from the first administration day. The measurement was performed before the irradiation on the irradiation day, and before the administration on the β-NMN administration day.

For `NC(=O)c1ccc[n+]([C@@H]2O[C@H](COP(=O)([O-])O)[C@@H](O)[C@H]2O)c1` [NMN, Nicotinamide mononucleotide], the “ΔL value at ultraviolet irradiation site” value ([1]; day 14 after first irradiation) was 8.28, the “ΔL value at ultraviolet irradiation site” value ([1]; day 21 after first irradiation) was 8.99 and the “ΔL value at ultraviolet irradiation site” value ([1]; day 28 after first irradiation) was 9.55. The “Pigmentation compared to the control group” value ([1]; oral 500 mg/kg body weight once a day for 42 days) was “pigmentation was inhibited”, the “ΔL value at ultraviolet irradiation site” value ([2]; NMN oral administration group (oral 500 mg/kg, solvent only on skin)) was 6.01 and the “ΔL value at ultraviolet irradiation site” value ([2]; NMN transdermal & oral administration group (oral 500 mg/kg plus 0.05 mL of 0.5% by mass external preparation per site)) was 5.20. For the same compound, the “Pigmentation compared with the control group” value ([2]; oral administration only) was “pigmentation was inhibited”, the “Pigmentation compared with only oral administration” value ([2]; transdermal administration in addition to oral administration) was “pigmentation was further inhibited” and the Body weight ([3]; 0 days after first administration) was 405 ± 22 g. The Body weight ([3]; 1 day after first administration) was 408 ± 23 g, the Body weight ([3]; 8 days after first administration) was 431 ± 23 g and the Body weight ([3]; 15 days after first administration) was 462 ± 33 g. The Body weight ([3]; 22 days after first administration) was 497 ± 34 g, the Body weight ([3]; 29 days after first administration) was 529 ± 29 g and the Body weight ([3]; 36 days after first administration) was 551 ± 35 g. For the same compound, the Body weight ([3]; 43 days after first administration) was 584 ± 33 g and the “Body weight difference versus control group” value ([3]; oral 500 mg/kg once a day for 42 days) was “no significant difference in body weight”.
